Where two headings read alike, the source gives them in different places.
How the values were obtained:
CDK2/cyclin A2 = target: T1, CDK2/cyclin A2 (Homo sapiens, UniProt P24941); assay: Human CDK2/cyclin A2 inhibitory activity (QS S Assist CDK2/Cyclin A2_FP Kit, IMAP fluorescence polarization); assay type: biochemical
T1 construct: purchased Carna Biosciences, Inc. QS S Assist CDK2/Cyclin A2_FP Kit
Protocol: Human CDK2/Cyclin A^2 Inhibitory Activity
Each compound was analyzed for CDK2/cyclin A2 inhibitory activity with an assay kit (QS S Assist CDK2/Cyclin A2_FP Kit, available from Carna Biosciences, Inc.). This assay kit determines kinase activity on the basis of the IMAP technology by Molecular Devices. Specifically, the kinase activity is determined through quantification of a variation in fluorescent polarization caused by binding of a kinase-phosphorylated fluorescent substance to an IMAP-binding reagent.
An assay buffer was prepared by 10-fold dilution of the 10× assay buffer attached to the kit with distilled water, and each solution was prepared with the assay buffer. The assay buffer contained 20 mM HEPES (pH 7.4), 0.01% Tween 20, and 2 mM dithiothreitol. A test compound solution was prepared by dilution of the test compound with dimethyl sulfoxide (DMSO) to a concentration 100 times higher than the final concentration and then 25-fold dilution with the assay buffer to a concentration four times higher than the final concentration. An ATP/substrate/Metal solution was prepared by five-fold dilution of the 5×ATP/substrate/Metal solution attached to the kit with the assay buffer. An enzyme solution was prepared by dilution of the CDK2/cyclin A2 attached to the kit with the assay buffer to a concentration twice higher than the final concentration (final concentration of CDK2/cyclin A2: 2.5 ng/well). A detection reagent was prepared by five-fold dilution of 5×IMAP-binding buffer A with distilled water and 400-fold dilution of the IMAP-binding reagent with the diluted buffer.
The test compound solution (5 μL/well) and the ATP/substrate/Metal solution (5 μL/well) were added to a 384-well plate, and the enzyme solution or the assay buffer (10 μL/well) was added to the plate (total amount of the reaction mixture: 20 μL/well) for initiation of enzymatic reaction. […] The reaction was performed at room temperature for 60 minutes, and the detection reagent (60 μL/well) was then added to the plate, followed by further reaction for 30 minutes at room temperature under light shielding conditions. Subsequently, fluorescent polarization was determined with a microplate reader at an excitation wavelength of 485 nm and an emission wavelength of 535 nm.
The percent inhibition of enzyme activity was calculated for each test compound (note: enzyme activity=100% in the case of addition of the enzyme solution and addition of DMSO instead of the test compound solution, whereas enzyme activity=0% in the case of addition of the assay buffer instead of the enzyme solution and addition of DMSO instead of the test compound solution). The percent inhibition of enzyme activity was fitted to a dose-response curve, to determine a 50% inhibitory concentration against CDK2/cyclin A2.
In each table, “+++” corresponds to IC50<10 nM, “++” 10 nM≤IC50<100 nM, and “+” 100 nM≤IC50.

CDK4/cyclin D3 = target: T2, CDK4/cyclin D3 (Homo sapiens, UniProt P11802); assay: Human CDK4/cyclin D3 inhibitory activity (QS S Assist CDK4/Cyclin D3_FP Kit, IMAP fluorescence polarization); assay type: biochemical
T2 construct: purchased Carna Biosciences, Inc. QS S Assist CDK4/Cyclin D3_FP Kit
How it was run: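 Percent inhibition, relative to DMSO with and without enzyme, was curve-fitted to give IC50 from polarization (ex 485, em 535 nm). The 45-min room-temperature reaction used 12.5-25 ng/well enzyme, kit ATP/substrate/metal mix, and HEPES pH 7.4 buffer with Tween20 and DTT, followed by 30-min IMAP binding in the dark.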

[1] = Human CDK2/cyclin A2 inhibitory activity, read-out: CDK2 Activity symbol
[2] = Human CDK4/cyclin D3 inhibitory activity, read-out: CDK4 Activity symbol
[3] = 50% inhibitory concentration against CDK2/cyclin A2, given as class symbol
[4] = 50% inhibitory concentration against CDK4/cyclin D3, given as class symbol

T2 sequence (P11802 whole entry): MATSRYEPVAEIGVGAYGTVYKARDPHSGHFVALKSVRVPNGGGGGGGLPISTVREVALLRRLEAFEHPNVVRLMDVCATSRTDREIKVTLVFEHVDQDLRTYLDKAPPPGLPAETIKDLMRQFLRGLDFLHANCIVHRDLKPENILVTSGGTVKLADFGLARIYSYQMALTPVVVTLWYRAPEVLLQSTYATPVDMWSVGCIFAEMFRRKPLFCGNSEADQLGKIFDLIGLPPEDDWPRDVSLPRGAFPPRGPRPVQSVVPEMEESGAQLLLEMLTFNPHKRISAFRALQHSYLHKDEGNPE
T2 sequence (P30281 whole entry partner): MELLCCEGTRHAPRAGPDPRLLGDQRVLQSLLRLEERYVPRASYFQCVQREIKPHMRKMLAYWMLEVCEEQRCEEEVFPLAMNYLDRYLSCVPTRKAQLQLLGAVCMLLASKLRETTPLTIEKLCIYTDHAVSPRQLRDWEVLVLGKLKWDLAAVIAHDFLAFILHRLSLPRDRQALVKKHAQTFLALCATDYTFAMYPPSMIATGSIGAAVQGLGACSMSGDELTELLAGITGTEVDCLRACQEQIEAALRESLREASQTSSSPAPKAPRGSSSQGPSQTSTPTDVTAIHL

Structure (SMILES)	IC50 (CDK2/cyclin A2; [1]) [nM]	IC50 (CDK4/cyclin D3; [2]) [nM]	IC50 (CDK2/cyclin A2; [3]) [nM]	IC50 (CDK4/cyclin D3; [4]) [nM]
C[C@@H](O)c1cc2cnc(Nc3ccc(CN4CCNCC4)cn3)nc2c(NC2CCS(=O)(=O)CC2)n1 [Compound 314]	≥ 100	< 10		
CC(C)Nc1nc([C@@H](C)O)c(Cl)c2cnc(Nc3ccc(N4CCC(O)CC4)nn3)nc12 [Compound 753]			≥ 100	< 10
CC(C)Nc1nc([C@@H](C)O)cc2cnc(Nc3ccc(CN4CCC(C(=O)O)CC4)cn3)nc12 [Compound 770]			≥ 100	10 to 100
COCC(C)(C)Nc1nc([C@@H](C)O)cc2cnc(Nc3ccc(C4CCCNC4)cn3)nc12 (stereo partly drawn) [Compound 333]	≥ 100	< 10		
COC1CCN(c2ccc(Nc3ncc4cc([C@@H](C)O)nc(N[C@H]5CCCOC5)c4n3)nn2)CC1 [Compound 762]			≥ 100	< 10
CC(C)Nc1nc([C@@H](C)O)cc2cnc(Nc3ccc(CN4CCC[C@H](O)C4)cn3)nc12 [Compound 1199]			≥ 100	< 10
CC(C)Nc1nc(C(F)F)cc2cnc(Nc3ccc(N4CCN(CCO)CC4)cn3)nc12 [Compound 49]	10 to 100	< 10		
C[C@@H](O)c1cc2cnc(Nc3ccc(CN4CCC(CO)CC4)cn3)nc2c(N[C@H]2CC[C@H](O)CC2)n1 [Compound 1151]			≥ 100	< 10
N#CCN1CCN(Cc2ccc(Nc3ncc4cc(C5CCOC5)nc(N[C@H]5CCCOC5)c4n3)nc2)CC1 (stereo partly drawn) [Compound 1013]			≥ 100	< 10
CC(C)Nc1nc([C@@H](C)O)cc2cnc(Nc3ccc(CN4CCCC(O)C4)cn3)nc12 (stereo partly drawn) [Compound 1057]			≥ 100	< 10
CC(C)Nc1nc(C(F)F)cc2cnc(Nc3ccc(CN(CC4CCOCC4)S(C)(=O)=O)cn3)nc12 [Compound 143]	≥ 100	10 to 100		
CCCNc1nc(C2(C)COC2)cc2cnc(Nc3ccc4c(n3)CCNC4)nc12 [Compound 947]			≥ 100	< 10
CO[C@H](C)c1cc2cnc(Nc3ccc(CN4CCNC[C@@H]4C)cn3)nc2c(NC(C)C)n1 [Compound 979]			≥ 100	< 10
C[C@@H](O)c1cc2cnc(Nc3ccc(N4CCNCC4=O)cn3)nc2c(NCC(F)(F)F)n1 [Compound 1174]			≥ 100	< 10
CC(=O)c1cc2cnc(Nc3ccc(CN4CCNCC4)cn3)nc2c(NCC(C)C)n1 [Compound 912]			≥ 100	< 10
CO[C@H](C)c1cc2cnc(Nc3ccc(N4CCCC(C(=O)O)C4)cn3)nc2c(NC(C)C)n1 (stereo partly drawn) [Compound 893]			≥ 100	10 to 100
CC(C)Nc1nc([C@@H](C)O)cc2cnc(Nc3ccc(N4CCN5CCCC5C4=O)cn3)nc12 (stereo partly drawn) [Compound 642]			≥ 100	< 10
CNC(=O)N1CCc2nc(Nc3ncc4cc([C@@H](C)O)nc(NC(C)C)c4n3)ccc2C1 [Compound 933]			≥ 100	< 10
CC(C)Nc1nc([C@@H](C)O)cc2cnc(Nc3ccc(N4CCC(N(C)C)CC4)nn3)nc12 [Compound 491]	≥ 100	< 10		
CC(C)Nc1nc(C(F)F)cc2cnc(Nc3ccc(CN4CCC(C(=O)NS(C)(=O)=O)CC4)cn3)nc12 [Compound 236]	10 to 100	< 10		
CC(C)Nc1nc(C(F)F)cc2cnc(Nc3ccc(S(=O)(=O)CCCO)cn3)nc12 [Compound 112]	10 to 100	10 to 100		
CO[C@H](C)c1cc2cnc(Nc3ccc(CN4CCOCC4)cn3)nc2c(NC(C)C)n1 [Compound 172]	≥ 100	10 to 100		
CN(C)CCOC(=O)N1CCc2nc(Nc3ncc4cc(C5(C)COC5)nc(N[C@H]5CCCOC5)c4n3)ccc2C1 [Compound 1137]			≥ 100	< 10
CN[C@H]1CC[C@H](Oc2ccc(Nc3ncc4cc([C@@H](C)O)nc(NC(C)C)c4n3)nc2)CC1 [Compound 737]			≥ 100	< 10

Structure (SMILES)	IC50 (CDK2/cyclin A2; [1]) [nM]	IC50 (CDK4/cyclin D3; [2]) [nM]	IC50 (CDK2/cyclin A2; [3]) [nM]	IC50 (CDK4/cyclin D3; [4]) [nM]
CCNc1nc(C(F)F)cc2cnc(Nc3ccc(N4CCNCC4=O)cn3)nc12 [Compound 820]			10 to 100	< 10
CC(C)Nc1nc([C@@H](C)O)cc2cnc(Nc3ccc(N4CCNCCC4=O)cn3)nc12 [Compound 522]	10 to 100	< 10		
CC(C)Nc1nc([C@@H](C)O)cc2cnc(Nc3ccc(N4CCN(CC#N)CC4=O)cn3)nc12 [Compound 899]			≥ 100	< 10
C[C@@H](O)c1cc2cnc(Nc3ccc(OCC4CNC4)cn3)nc2c(N[C@H]2CCCOC2)n1 [Compound 800]			≥ 100	< 10
CC(C)Nc1nc([C@@H](C)O)cc2cnc(Nc3ccc(CN4CCN(CC#N)CC4)cn3)nc12 [Compound 1015]			≥ 100	< 10
CO[C@H](C)c1cc2cnc(Nc3ccc(C4CCNCC4)cn3)nc2c(NC(C)C)n1 [Compound 232]	≥ 100	< 10		
CO[C@H](C)c1cc2cnc(Nc3ccc(CCCN4CCOCC4=O)cn3)nc2c(NC(C)C)n1 [Compound 192]	≥ 100	10 to 100		
C[C@@H](O)c1nc(N[C@H]2CC[C@H](O)CC2)c2nc(Nc3ccc(CN4CCNCC4)cn3)ncc2c1Cl [Compound 370]	≥ 100	< 10		
CO[C@H](C)c1cc2cnc(Nc3ccc(CN4CCN(CCF)CC4)cn3)nc2c(NC(C)C)n1 [Compound 276]	≥ 100	< 10		
CC(C)Nc1nc([C@@H](C)O)cc2cnc(Nc3ccc(N4CCN(CC(=O)O)CC4=O)cn3)nc12 [Compound 833]			≥ 100	< 10
CNCCOc1ccc(Nc2ncc3cc(C(C)O)nc(NC4(C)CCCOC4)c3n2)nc1 (single isomer, unassigned) [Compound 870]			≥ 100	< 10
CC(C)Nc1nc([C@@H](C)O)cc2cnc(Nc3ccc4c(n3)CCN(C(=O)[C@@H](N)C(C)C)C4)nc12 [Compound 931]			≥ 100	< 10
CC(O)c1cc2cnc(Nc3ccc(N4CCNCC4)cn3)nc2c(Nc2ccccc2)n1 (stereo not drawn) [Compound 26]	≥ 100	< 10		
C[C@@H](O)c1cc2cnc(Nc3ccc(N4CCNCC4=O)cn3)nc2c(NC2CC(F)(F)C2)n1 [Compound 1211]			≥ 100	10 to 100
CC(C)Nc1nc(C(C)O)cc2cnc(Nc3ccc(OC4CNCCC4F)cn3)nc12 (stereo not drawn) [Compound 864]			≥ 100	< 10
CO[C@H](C)c1cc2cnc(Nc3ccc(CN4CCNC[C@H]4C)cn3)nc2c(NC(C)C)n1 [Compound 978]			≥ 100	< 10
CC(C)CN1CCN(c2ccc(Nc3ncc4cc([C@@H](C)O)nc(NC(C)C)c4n3)nn2)CC1 [Compound 586]	≥ 100	< 10		
CNCCOc1ccc(Nc2ncc3cc([C@@H](C)O)nc(NC(C)C)c3n2)nc1 [Compound 529]	≥ 100	< 10		
CC(C)Nc1nc(C(F)F)cc2cnc(Nc3ccc(CN4CCNC(=O)C4)cn3)nc12 [Compound 131]	10 to 100	< 10		
CC(C)Nc1nc([C@@H](C)O)cc2cnc(Nc3ccc(N4CCN(C5CCC5)CC4)nn3)nc12 [Compound 602]	≥ 100	< 10		
CCC(O)c1cc2cnc(Nc3ccc(N4CCNCC4=O)cn3)nc2c(NC(C)C)n1 (stereo not drawn) [Compound 1037]			≥ 100	10 to 100
CC(C)Nc1nc([C@@H](C)O)cc2cnc(Nc3ccc(N4CCN(CC(N)=O)CC4)nn3)nc12 [Compound 937]			≥ 100	< 10
CC(=O)N(Cc1ccc(Nc2ncc3cc(C(F)F)nc(NC(C)C)c3n2)nc1)C[C@@H]1CCCO1 [Compound 146]	≥ 100	< 10		
CC(C)Nc1nc([C@@H](C)O)cc2cnc(Nc3ccc(N4CCN(C(=O)CO)CC4)cn3)nc12 [Compound 1090]			≥ 100	< 10

From patent US10124004B2, “Pyrido[3,4-d]pyrimidine derivative and pharmaceutically acceptable salt thereof” (Teijin Pharma Limited, priority 2015, dated 2018)
